Laboratory results from ChEMBL document CHEMBL1153753, “Structure-activity relationships and mechanism of action of antitumor bis 8-hydroxyquinoline substituted benzylamines” (Eur J Med Chem, 2010).

Tests used:
[1] = Disregulation of endoplasmic reticulum stress responsive gene expression in human U87 cells assessed as change in RGS16 mRNA level at 0.5 uM after 3 hrs by microarray analysis relative to untreated control; type: functional, cell-based; conditions: U-87MG ATCC
[2] = Disregulation of DNA-damage and oxidative stress responsive gene expression in human U87 cells assessed as change in GADD45A mRNA level at 0.5 uM after 16 hrs by microarray analysis relative to untreated control; type: functional, U-87MG ATCC
[3] = Disregulation of DNA-damage and oxidative stress responsive gene expression in human U87 cells assessed as change in DDIT4 mRNA level at 0.5 uM after 16 hrs by microarray analysis relative to untreated control; type: functional, U-87MG ATCC
[4] = Disregulation of inflammation related gene expression in human U87 cells assessed as change in IL6 mRNA level at 0.5 uM after 16 hrs by microarray analysis relative to untreated control; type: functional, cell-based; conditions: U-87MG ATCC
[5] = Disregulation of inflammation related gene expression in human U87 cells assessed as change in IFRD1 mRNA level at 0.5 uM after 16 hrs by microarray analysis relative to untreated control; type: functional, cell-based; conditions: U-87MG ATCC
[6] = Disregulation of inflammation related gene expression in human U87 cells assessed as change in CCL17 mRNA level at 0.5 uM after 3 hrs by microarray analysis relative to untreated control; type: functional, cell-based; conditions: U-87MG ATCC
[7] = Disregulation of apoptosis related gene expression in human U87 cells assessed as change in E2F1 mRNA level at 0.5 uM after 16 hrs by microarray analysis relative to untreated control; type: functional, cell-based; conditions: U-87MG ATCC
[8] = Disregulation of cell survival related gene expression in human U87 cells assessed as change in BCL2L10 mRNA level at 0.5 uM after 16 hrs by microarray analysis relative to untreated control; type: functional, cell-based; conditions: U-87MG ATCC
[9] = Disregulation of cell cycle related gene expression in human U87 cells assessed as change in CDK2 mRNA level at 0.5 uM after 16 hrs by microarray analysis relative to untreated control; type: functional, cell-based; conditions: U-87MG ATCC

## Cc1ccc(CN(Cc2ccc(O)c3ncccc23)Cc2ccc(O)c3ncccc23)cc1
[1]
  fold change (FC): > 1.4
[2]
  fold change (FC): 3
[3]
  fold change (FC): 3
[4]
  fold change (FC): 3
[5]
  fold change (FC): 3
[6]
  fold change (FC): > 1.4
[7]
  fold change (FC): 3
[8]
  fold change (FC): 3
[9]
  fold change (FC): 3
